According to patent publication US7414071B2, “Methods of treatment with selective EP4 receptor agonists” (Pfizer Inc., priority 2002, dated 2008):

System: New Zealand White male rabbits
Assay: In vivo anesthetized rabbit model (hypotensive effect: mean arterial pressure and heart rate)
Protocol: Methods: New Zealand White male rabbits (3-4 kg) are anesthetized with sodium pentobarbital (30 mg/kg, i.v.) and a surgical plane of anesthesia is maintained by a continuous infusion of sodium pentobarbital (16 mg/kg/hr) via an ear vein catheter. A tracheotomy is performed through a ventral midline cervical incision and the rabbits are ventilated with 100% oxygen using a positive pressure ventilator. Body temperature is maintained at 38.5° C. using a heating pad connected to a YSI temperature controller model 72 (Yellow Springs Instruments, Yellow Springs, […].). Fluid-filled catheters are placed in the right jugular vein (for intravenous drug administration) and in the right carotid artery for arterial pressure monitoring and for blood gas analysis using a model 248 blood gas analyzer (Bayer Diagnostics, Norwood, Mass.). The ventilator is adjusted as needed to maintain blood pH and pCO2 within normal physiological ranges for rabbits. […] Blood is sampled after dosing or during the infusion of the test compound to determine plasma concentrations of the test compounds.
Thus, dosing volumes were 0.2 ml/kg (Group A) subcutaneously or 5 ml/h (Groups B, C, and D) as an intravenous (IV) infusion. The term “mgA” means the number of milligrams adjusted for active compound (e.g. corrected for salt etc.).
Dosing: Four groups (Groups A, B, C, and D) of two rabbits each were dosed as follows.

[1] = Group B, 167 μg/kg/h IV infusion
[2] = Group C, 16.7 μg/kg/h IV infusion

Compound: O=C([O-])c1ccc(CCCN2C(=O)CC[C@@H]2CC[C@@H](O)Cc2cccc(C(F)(F)F)c2)s1.[Na+] [Compound 3M sodium salt]
- duration of hemodynamic effect (Group A, 1 mgA/kg SC): sustained over the entire 4 hour post-dose interval
- effect on heart rate (Group A, 1 mgA/kg SC): increase in heart rate
- effect on mean arterial pressure (Group A, 1 mgA/kg SC): decrease in mean arterial pressure
- onset of hemodynamic effect (Group A, 1 mgA/kg SC): < 2 min
- mean arterial pressure (MAP) (Group A, 1 mgA/kg SC bolus, 5 min post-dose, mean of 2, baseline 92): 69 mm Hg
- heart rate (HR) (Group A, 1 mgA/kg SC bolus, 5 min post-dose, mean of 2, baseline 243): 268 beats/minute
- mean arterial pressure (MAP) (Group A, 1 mgA/kg SC bolus, 10 min post-dose, mean of 2, baseline 92): 59 mm Hg
- heart rate (HR) (Group A, 1 mgA/kg SC bolus, 10 min post-dose, mean of 2, baseline 243): 283 beats/minute
- mean arterial pressure (MAP) (Group A, 1 mgA/kg SC bolus, 15 min post-dose, mean of 2, baseline 92): 60 mm Hg
- heart rate (HR) (Group A, 1 mgA/kg SC bolus, 15 min post-dose, mean of 2, baseline 243): 285 beats/minute
- mean arterial pressure (MAP) (Group A, 1 mgA/kg SC bolus, 30 min post-dose, mean of 2, baseline 92): 59 mm Hg
- heart rate (HR) (Group A, 1 mgA/kg SC bolus, 30 min post-dose, mean of 2, baseline 243): 284 beats/minute
- mean arterial pressure (MAP) (Group A, 1 mgA/kg SC bolus, 60 min post-dose, mean of 2, baseline 92): 59 mm Hg
- heart rate (HR) (Group A, 1 mgA/kg SC bolus, 60 min post-dose, mean of 2, baseline 243): 288 beats/minute
- mean arterial pressure (MAP) (Group A, 1 mgA/kg SC bolus, 90 min post-dose, mean of 2, baseline 92): 59 mm Hg
- heart rate (HR) (Group A, 1 mgA/kg SC bolus, 90 min post-dose, mean of 2, baseline 243): 284 beats/minute
- mean arterial pressure (MAP) (Group A, 1 mgA/kg SC bolus, 120 min post-dose, mean of 2, baseline 92): 58 mm Hg
- heart rate (HR) (Group A, 1 mgA/kg SC bolus, 120 min post-dose, mean of 2, baseline 243): 278 beats/minute
- mean arterial pressure (MAP) (Group A, 1 mgA/kg SC bolus, 150 min post-dose, mean of 2, baseline 92): 57 mm Hg
- heart rate (HR) (Group A, 1 mgA/kg SC bolus, 150 min post-dose, mean of 2, baseline 243): 275 beats/minute
- mean arterial pressure (MAP) (Group A, 1 mgA/kg SC bolus, 180 min post-dose, mean of 2, baseline 92): 60 mm Hg
- heart rate (HR) (Group A, 1 mgA/kg SC bolus, 180 min post-dose, mean of 2, baseline 243): 273 beats/minute
- mean arterial pressure (MAP) (Group A, 1 mgA/kg SC bolus, 210 min post-dose, mean of 2, baseline 92): 61 mm Hg
- heart rate (HR) (Group A, 1 mgA/kg SC bolus, 210 min post-dose, mean of 2, baseline 243): 273 beats/minute
- mean arterial pressure (MAP) (Group A, 1 mgA/kg SC bolus, 240 min post-dose, mean of 2, baseline 92): 65 mm Hg
- heart rate (HR) (Group A, 1 mgA/kg SC bolus, 240 min post-dose, mean of 2, baseline 243): 273 beats/minute
- duration of hemodynamic effect [1]: sustained over the entire 4 hour post-dose interval
- effect on heart rate [1]: increase in heart rate
- effect on mean arterial pressure [1]: decrease in mean arterial pressure
- onset of hemodynamic effect [1]: < 2 min
- mean arterial pressure (MAP) (Group B, 167 μg/kg/hr IV infusion for 4 hours, 5 min, mean of 2, baseline 87): 67 mm Hg
- heart rate (HR) (Group B, 167 μg/kg/hr IV infusion for 4 hours, 5 min, mean of 2, baseline 260): 296 beats/minute
- mean arterial pressure (MAP) (Group B, 167 μg/kg/hr IV infusion for 4 hours, 10 min, mean of 2, baseline 87): 67 mm Hg
- heart rate (HR) (Group B, 167 μg/kg/hr IV infusion for 4 hours, 10 min, mean of 2, baseline 260): 296 beats/minute
- mean arterial pressure (MAP) (Group B, 167 μg/kg/hr IV infusion for 4 hours, 15 min, mean of 2, baseline 87): 69 mm Hg
- heart rate (HR) (Group B, 167 μg/kg/hr IV infusion for 4 hours, 15 min, mean of 2, baseline 260): 296 beats/minute
- mean arterial pressure (MAP) (Group B, 167 μg/kg/hr IV infusion for 4 hours, 30 min, mean of 2, baseline 87): 68 mm Hg
- heart rate (HR) (Group B, 167 μg/kg/hr IV infusion for 4 hours, 30 min, mean of 2, baseline 260): 291 beats/minute
- mean arterial pressure (MAP) (Group B, 167 μg/kg/hr IV infusion for 4 hours, 60 min, mean of 2, baseline 87): 67 mm Hg
- heart rate (HR) (Group B, 167 μg/kg/hr IV infusion for 4 hours, 60 min, mean of 2, baseline 260): 293 beats/minute
- mean arterial pressure (MAP) (Group B, 167 μg/kg/hr IV infusion for 4 hours, 90 min, mean of 2, baseline 87): 57 mm Hg
- heart rate (HR) (Group B, 167 μg/kg/hr IV infusion for 4 hours, 90 min, mean of 2, baseline 260): 282 beats/minute
- mean arterial pressure (MAP) (Group B, 167 μg/kg/hr IV infusion for 4 hours, 120 min, mean of 2, baseline 87): 55 mm Hg
- heart rate (HR) (Group B, 167 μg/kg/hr IV infusion for 4 hours, 120 min, mean of 2, baseline 260): 282 beats/minute
- mean arterial pressure (MAP) (Group B, 167 μg/kg/hr IV infusion for 4 hours, 150 min, mean of 2, baseline 87): 52 mm Hg
- heart rate (HR) (Group B, 167 μg/kg/hr IV infusion for 4 hours, 150 min, mean of 2, baseline 260): 279 beats/minute
- mean arterial pressure (MAP) (Group B, 167 μg/kg/hr IV infusion for 4 hours, 180 min, mean of 2, baseline 87): 53 mm Hg
- heart rate (HR) (Group B, 167 μg/kg/hr IV infusion for 4 hours, 180 min, mean of 2, baseline 260): 285 beats/minute
- mean arterial pressure (MAP) (Group B, 167 μg/kg/hr IV infusion for 4 hours, 210 min, mean of 2, baseline 87): 56 mm Hg
- heart rate (HR) (Group B, 167 μg/kg/hr IV infusion for 4 hours, 210 min, mean of 2, baseline 260): 284 beats/minute
- mean arterial pressure (MAP) (Group B, 167 μg/kg/hr IV infusion for 4 hours, 240 min, mean of 2, baseline 87): 55 mm Hg
- heart rate (HR) (Group B, 167 μg/kg/hr IV infusion for 4 hours, 240 min, mean of 2, baseline 260): 297 beats/minute
- effect on heart rate [2]: slight increase in the heart rate
- effect on mean arterial pressure [2]: slight decrease in mean arterial pressure
- mean arterial pressure (MAP) (Group C, 16.7 μg/kg/hr IV infusion for 4 hours, 5 min, mean of 2, baseline 95): 91 mm Hg
- heart rate (HR) (Group C, 16.7 μg/kg/hr IV infusion for 4 hours, 5 min, mean of 2, baseline 291): 289 beats/minute
- mean arterial pressure (MAP) (Group C, 16.7 μg/kg/hr IV infusion for 4 hours, 10 min, mean of 2, baseline 95): 86 mm Hg
- heart rate (HR) (Group C, 16.7 μg/kg/hr IV infusion for 4 hours, 10 min, mean of 2, baseline 291): 299 beats/minute
- mean arterial pressure (MAP) (Group C, 16.7 μg/kg/hr IV infusion for 4 hours, 15 min, mean of 2, baseline 95): 84 mm Hg
- heart rate (HR) (Group C, 16.7 μg/kg/hr IV infusion for 4 hours, 15 min, mean of 2, baseline 291): 302 beats/minute
- mean arterial pressure (MAP) (Group C, 16.7 μg/kg/hr IV infusion for 4 hours, 30 min, mean of 2, baseline 95): 84 mm Hg
- heart rate (HR) (Group C, 16.7 μg/kg/hr IV infusion for 4 hours, 30 min, mean of 2, baseline 291): 306 beats/minute
- mean arterial pressure (MAP) (Group C, 16.7 μg/kg/hr IV infusion for 4 hours, 60 min, mean of 2, baseline 95): 85 mm Hg
- heart rate (HR) (Group C, 16.7 μg/kg/hr IV infusion for 4 hours, 60 min, mean of 2, baseline 291): 300 beats/minute
- mean arterial pressure (MAP) (Group C, 16.7 μg/kg/hr IV infusion for 4 hours, 90 min, mean of 2, baseline 95): 83 mm Hg
